We go through eleven compounds from patent US12606568B2, “SMARCA degraders and uses thereof” (Kymera Therapeutics, Inc., priority 2020, dated 2026).

The term DC50 denotes the concentration at which degradation of the target reaches its halfway point. A word on the Dmax: it is the greatest extent of degradation seen.

Holding throughout (type): cell-based
Experiment [1] addresses T1, SMARCA4 (Homo sapiens, UniProt P51532).
T1 construct: SMARCA2 and SMARCA4 protein degradation in MV4-11 cells; endogenous in cells; host or cells: MV4-11
The experiment can be described thus: SMARCA4 Western blot MV4-11 degradation. The conditions noted are these: for SMARCA4 MSD MV411 degradation 24 h: average Dmax % / DC50: MV4-11 cells; for DC50 / Dmax: 24 h; for DC50: read-out: SMARCA4 MSD MV411 degradation 24 h: Mean external-Abs DC50; for Dmax: MV4-11, MV4-11 cells, read-out: SMARCA4 MSD MV411 degradation 24 h: average Dmax %. In general terms: In western blotting, separated proteins are transferred to a membrane and probed.

Experiment [2] has as its target T2, SMARCA2 (Homo sapiens, UniProt P51531). The experiment can be described thus: MSD SMARCA2 degradation in A549 cell line. Further details: endogenous in cells. The conditions noted are these: for SMARCA2 MSD A549 degradation 24 h: Average Dmax % / DC50: A549 cells; for DC50 / Dmax: 24 h; for DC50: read-out: SMARCA2 MSD A549 degradation 24 h: Average external-Abs DC50; for Dmax: A549, A549 cells. In short, it runs like this:
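A549 cells treated 24 h with compound, 3-fold series 1000 nM down to 0.152 nM plus DMSO. RIPA lysates captured on MSD plates, probed with rabbit anti-SMARCA2/BRM (1 µg/ml) then SULFO-TAG anti-rabbit, electrochemiluminescence read. DC50 and 24 h Dmax reported as letter bins.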

In experiment [3] the target is T2, SMARCA2. The experiment can be described thus: SMARCA2 Western blot MV4-11 degradation. Further details: SMARCA2 and SMARCA4 protein degradation in MV4-11 cells; endogenous in cells; host or cells: MV4-11. The settings on record: for SMARCA2 MSD MV411 degradation 24 h: average Dmax % / DC50: MV4-11 cells; for DC50 / Dmax: 24 h; for DC50: read-out: SMARCA2 MSD MV411 degradation 24 h: Mean external-Abs DC50; for Dmax: MV4-11, MV4-11 cells, read-out: SMARCA2 MSD MV411 degradation 24 h: average Dmax %.

T2 sequence (P51531 whole entry): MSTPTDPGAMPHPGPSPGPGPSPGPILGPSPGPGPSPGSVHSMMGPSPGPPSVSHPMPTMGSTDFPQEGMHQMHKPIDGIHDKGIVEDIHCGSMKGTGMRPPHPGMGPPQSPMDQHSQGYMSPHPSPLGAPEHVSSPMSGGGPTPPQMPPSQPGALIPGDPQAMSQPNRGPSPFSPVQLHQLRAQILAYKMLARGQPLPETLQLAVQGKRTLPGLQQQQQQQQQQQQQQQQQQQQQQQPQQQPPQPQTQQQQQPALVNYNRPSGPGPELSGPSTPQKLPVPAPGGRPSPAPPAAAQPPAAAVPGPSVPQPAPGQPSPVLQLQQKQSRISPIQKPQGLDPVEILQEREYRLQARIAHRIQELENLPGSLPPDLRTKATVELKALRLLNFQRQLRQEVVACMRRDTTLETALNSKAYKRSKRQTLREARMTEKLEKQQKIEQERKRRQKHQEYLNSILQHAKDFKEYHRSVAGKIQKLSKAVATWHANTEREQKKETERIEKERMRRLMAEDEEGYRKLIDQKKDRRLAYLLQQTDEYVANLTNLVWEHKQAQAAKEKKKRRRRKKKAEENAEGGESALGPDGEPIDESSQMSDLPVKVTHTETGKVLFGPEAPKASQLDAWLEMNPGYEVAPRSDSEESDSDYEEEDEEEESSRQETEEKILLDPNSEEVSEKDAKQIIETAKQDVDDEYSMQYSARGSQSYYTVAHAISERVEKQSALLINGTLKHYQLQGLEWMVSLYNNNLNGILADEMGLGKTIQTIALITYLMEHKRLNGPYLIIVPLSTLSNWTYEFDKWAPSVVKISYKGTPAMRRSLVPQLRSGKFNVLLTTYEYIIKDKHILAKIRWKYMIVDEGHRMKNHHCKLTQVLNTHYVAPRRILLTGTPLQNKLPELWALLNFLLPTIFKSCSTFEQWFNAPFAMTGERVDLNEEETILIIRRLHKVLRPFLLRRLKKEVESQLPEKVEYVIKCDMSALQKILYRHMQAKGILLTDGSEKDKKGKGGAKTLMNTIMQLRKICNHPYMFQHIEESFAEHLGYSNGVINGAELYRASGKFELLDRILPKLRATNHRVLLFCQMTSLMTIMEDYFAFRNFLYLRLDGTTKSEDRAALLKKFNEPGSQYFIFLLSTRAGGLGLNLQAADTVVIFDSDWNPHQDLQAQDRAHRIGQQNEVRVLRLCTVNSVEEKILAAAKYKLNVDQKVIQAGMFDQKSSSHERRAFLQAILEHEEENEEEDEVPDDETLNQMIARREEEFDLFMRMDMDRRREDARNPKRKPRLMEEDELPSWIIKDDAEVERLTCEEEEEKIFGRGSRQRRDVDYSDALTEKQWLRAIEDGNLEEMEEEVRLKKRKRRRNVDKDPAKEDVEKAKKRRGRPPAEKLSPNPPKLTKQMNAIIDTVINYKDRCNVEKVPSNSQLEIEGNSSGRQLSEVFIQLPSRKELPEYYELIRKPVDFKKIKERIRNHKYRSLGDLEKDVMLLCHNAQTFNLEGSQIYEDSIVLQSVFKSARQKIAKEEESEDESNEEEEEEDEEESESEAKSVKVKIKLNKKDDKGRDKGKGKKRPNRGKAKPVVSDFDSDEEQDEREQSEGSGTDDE
T1 sequence (P51532 whole entry): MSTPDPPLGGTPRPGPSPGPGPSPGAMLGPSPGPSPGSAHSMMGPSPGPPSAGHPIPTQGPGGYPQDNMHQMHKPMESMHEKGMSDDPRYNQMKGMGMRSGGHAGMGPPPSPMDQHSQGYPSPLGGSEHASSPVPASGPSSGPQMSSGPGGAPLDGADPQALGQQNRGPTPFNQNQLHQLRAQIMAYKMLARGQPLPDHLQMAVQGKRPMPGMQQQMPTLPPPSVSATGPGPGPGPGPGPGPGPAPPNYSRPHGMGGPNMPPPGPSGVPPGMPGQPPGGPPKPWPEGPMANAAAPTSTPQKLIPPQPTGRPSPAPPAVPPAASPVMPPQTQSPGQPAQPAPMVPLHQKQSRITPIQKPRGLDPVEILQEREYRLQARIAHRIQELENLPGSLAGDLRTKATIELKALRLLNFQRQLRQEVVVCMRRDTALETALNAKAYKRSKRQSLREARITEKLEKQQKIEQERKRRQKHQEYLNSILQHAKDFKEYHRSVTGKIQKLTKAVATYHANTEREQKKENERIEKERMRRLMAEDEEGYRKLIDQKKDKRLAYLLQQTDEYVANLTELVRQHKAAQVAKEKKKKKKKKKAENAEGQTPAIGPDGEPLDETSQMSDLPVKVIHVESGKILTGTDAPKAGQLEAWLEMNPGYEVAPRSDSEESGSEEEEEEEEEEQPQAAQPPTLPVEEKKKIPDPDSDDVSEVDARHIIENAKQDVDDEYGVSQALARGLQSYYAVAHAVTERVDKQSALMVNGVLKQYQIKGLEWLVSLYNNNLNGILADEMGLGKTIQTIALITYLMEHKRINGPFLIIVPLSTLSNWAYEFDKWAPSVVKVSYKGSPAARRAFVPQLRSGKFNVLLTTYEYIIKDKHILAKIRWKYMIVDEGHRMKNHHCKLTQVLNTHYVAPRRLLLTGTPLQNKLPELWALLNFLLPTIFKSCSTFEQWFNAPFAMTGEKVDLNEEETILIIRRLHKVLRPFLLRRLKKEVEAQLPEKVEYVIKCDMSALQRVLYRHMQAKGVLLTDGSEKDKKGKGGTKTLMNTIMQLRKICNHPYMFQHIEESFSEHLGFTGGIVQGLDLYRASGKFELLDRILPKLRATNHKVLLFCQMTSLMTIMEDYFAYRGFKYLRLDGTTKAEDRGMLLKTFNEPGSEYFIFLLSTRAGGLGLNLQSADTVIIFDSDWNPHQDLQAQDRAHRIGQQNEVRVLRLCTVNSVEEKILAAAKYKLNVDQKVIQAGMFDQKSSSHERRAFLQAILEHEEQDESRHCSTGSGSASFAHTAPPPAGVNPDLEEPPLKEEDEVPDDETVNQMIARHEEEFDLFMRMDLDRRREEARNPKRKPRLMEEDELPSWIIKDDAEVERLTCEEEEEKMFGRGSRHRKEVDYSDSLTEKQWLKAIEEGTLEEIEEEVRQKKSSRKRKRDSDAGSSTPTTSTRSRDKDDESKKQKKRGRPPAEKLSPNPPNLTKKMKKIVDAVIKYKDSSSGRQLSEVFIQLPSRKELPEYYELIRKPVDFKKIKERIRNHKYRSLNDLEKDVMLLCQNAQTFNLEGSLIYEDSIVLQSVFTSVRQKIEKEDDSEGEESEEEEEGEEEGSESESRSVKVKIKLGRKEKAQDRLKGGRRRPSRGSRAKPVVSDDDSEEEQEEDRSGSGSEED

Consider `Cn1nccc1-c1ccc(CNC(=O)[C@@H]2C[C@@H](O)CN2C(=O)[C@@H](NC(=O)[C@H]2CC3(C2)C[C@H](N2CCC(c4cnc(N5C6CCC5CN(c5cc(-c7ccccc7O)nnc5N)C6)nc4)CC2)C3)C(C)(C)C)cc1` (stereo partly drawn) [I-36, (2S,4R)-1-((2S)-2-(6-(4-(2-(3-(3-amino-6-(2-hydroxyphenyl)pyridazin-4-yl)-3,8-diazabicyclo[3.2.1]octan-8-yl)pyrimidin-5-yl)piperidin-1-yl)spiro[3.3]heptane-2-carboxamido)-3,3-dimethylbutanoyl)-4-hydroxy-N-(4-(1-methyl-1H-pyrazol-5-yl)benzyl)-pyrrolidine-2-carboxamide], for which, in experiment [1], the “SMARCA4 MSD MV411 degradation 24 h: average Dmax %” value is given as “D (D (<50% degradation))” and the DC50 was over 1000 nM. Moreover, in experiment [2], the “SMARCA2 MSD A549 degradation 24 h: Average Dmax %” value was “B (B (>70-90% o degradation))” and the DC50 is 100 to 500 nM. In addition, in experiment [3], the “SMARCA2 MSD MV411 degradation 24 h: average Dmax %” value was “B (B (>70-90% degradation))” and the DC50 was under 100 nM.
As to `Cc1ncsc1-c1ccc(CNC(=O)[C@@H]2C[C@@H](O)CN2C(=O)[C@@H](NC(=O)CN(C)Cc2cnc(N3C4CCC3CN(c3cc(-c5ccccc5O)nnc3N)C4)nc2)C(C)(C)C)cc1` [I-37, (2S,4R)-1-((2S)-2-(2-(((2-(3-(3-amino-6-(2-hydroxyphenyl)pyridazin-4-yl)-3,8-diazabicyclo[3.2.1]octan-8-yl)pyrimidin-5-yl)methyl)(methyl)amino)acetamido)-3,3-dimethylbutanoyl)-4-hydroxy-N-(4-(4-methylthiazol-5-yl)benzyl)pyrrolidine-2-carboxamide], the Dmax in experiment [1], in experiment [2] and in experiment [3] was over 90% throughout. The DC50 in experiment [1] is under 100 nM; in experiment [2] it was 501 to 1000 nM; in experiment [3], under 100 nM.
Regarding `Cc1ncsc1-c1ccc(CNC(=O)[C@@H]2C[C@@H](O)CN2C(=O)[C@@H](NC(=O)C2CC3(C2)CC(N2CCC(Oc4cc(N5C6CCC5CN(c5cc(-c7ccccc7O)nnc5N)C6)ccn4)CC2)C3)C(C)(C)C)cc1` (stereo partly drawn) [I-38, (2S,4R)-1-((2S)-2-(6-(4-((4-(3-(3-amino-6-(2-hydroxyphenyl)pyridazin-4-yl)-3,8-diazabicyclo[3.2.1]octan-8-yl)pyridin-2-yl)oxy)piperidin-1-yl)spiro[3.3]heptane-2-carboxamido)-3,3-dimethylbutanoyl)-4-hydroxy-N-(4-(4-methylthiazol-5-yl)benzyl)pyrrolidine-2-carboxamide], the results for the Dmax in experiment [1], in experiment [2] and in experiment [3] were over 90%, 70 to 90% and under 50%, respectively. For the same compound, the DC50 in experiment [1], in experiment [2] and in experiment [3] was over 1000 nM throughout.
Regarding `Cc1ncsc1-c1ccc(CNC(=O)[C@@H]2C[C@@H](O)CN2C(=O)[C@@H](NC(=O)[C@H]2CC3(C2)C[C@H](N2CCC(Oc4ccc(N5C6CCC5CN(c5cc(-c7ccccc7O)nnc5N)C6)cn4)CC2)C3)C(C)(C)C)cc1` (stereo partly drawn) [I-39, (2S,4R)-1-((2S)-2-(6-(4-((5-(3-(3-amino-6-(2-hydroxyphenyl)pyridazin-4-yl)-3,8-diazabicyclo[3.2.1]octan-8-yl)pyridin-2-yl)oxy)piperidin-1-yl)spiro[3.3]heptane-2-carboxamido)-3,3-dimethylbutanoyl)-4-hydroxy-N-(4-(4-methylthiazol-5-yl)benzyl)pyrrolidine-2-carboxamide], the Dmax was over 90% in experiment [1], 50 to 70% in experiment [2] and 70 to 90% in experiment [3]. Further, the DC50 in experiment [1] was over 1000 nM; in experiment [2] it was over 1000 nM; in experiment [3], 100 to 500 nM.
In the case of `Cc1ncsc1-c1ccc(CNC(=O)[C@@H]2C[C@@H](O)CN2C(=O)[C@@H](NC(=O)[C@H]2CC3(C2)C[C@H](N2CCC(Oc4ccc(N5C6CCC5CN(c5cc(-c7ccccc7O)nnc5N)C6)cn4)CC2)C3)C(C)(C)C)cc1` (stereo partly drawn) [I-40], in experiment [1], the “SMARCA4 MSD MV411 degradation 24 h: average Dmax %” value is “A (A (>90% degradation))” and the DC50 was over 1000 nM. Also, in experiment [2], the “SMARCA2 MSD A549 degradation 24 h: Average Dmax %” value is “B (B (>70-90% o degradation))” and the DC50 was over 1000 nM. Moreover, in experiment [3], the “SMARCA2 MSD MV411 degradation 24 h: average Dmax %” value is “B (B (>70-90% degradation))” and the DC50 is under 100 nM.
Take `Cc1ncsc1-c1ccc(CNC(=O)[C@@H]2C[C@@H](O)CN2C(=O)[C@@H](NC(=O)C2CC3(C2)CC(N2CCC(COc4ccc(N5C6CCC5CN(c5cc(-c7ccccc7O)nnc5N)C6)cn4)CC2)C3)C(C)(C)C)cc1` (stereo partly drawn) [I-41, (2S,4R)-1-((2S)-2-(6-(4-(((5-(3-(3-amino-6-(2-hydroxyphenyl)pyridazin-4-yl)-3,8-diazabi-cyclo[3.2.1]octan-8-yl)pyridin-2-yl)oxy)methyl)piperidin-1-yl)spiro[3.3]heptane-2-carbox-amido)-3,3-dimethylbutanoyl)-4-hydroxy-N-(4-(4-methylthiazol-5-yl)benzyl)pyrrolidine-2-carboxamide]: the results for the Dmax in experiment [1], in experiment [2] and in experiment [3] were over 90%, 50 to 70% and under 50%, respectively. The DC50 in experiment [1], in experiment [2] and in experiment [3] was over 1000 nM each time.
With `Cc1ncsc1-c1ccc(CNC(=O)[C@@H]2C[C@@H](O)CN2C(=O)[C@@H](NC(=O)[C@H]2CCC3(CC2)C[C@H](N2CCC(c4cnc(N5C6CCC5CN(c5cc(-c7ccccc7O)nnc5N)C6)nc4)CC2)C3)C(C)(C)C)cc1` (stereo partly drawn) [I-42, (2S,4R)-1-((2S)-2-(2-(4-(2-(3-(3-amino-6-(2-hydroxyphenyl)pyridazin-4-yl)-3,8-diazabicyclo[3.2.1]octan-8-yl)pyrimidin-5-yl)piperidin-1-yl)spiro[3.5]nonane-7-carboxamido)-3,3-dimethylbutanoyl)-4-hydroxy-N-(4-(4-methylthiazol-5-yl)benzyl)pyrrolidine-2-carboxamide], the Dmax in experiment [1] was under 50%; in experiment [2] it was 70 to 90%; in experiment [3], 70 to 90%. For the same compound, the DC50 was over 1000 nM in experiment [1], 100 to 500 nM in experiment [2] and under 100 nM in experiment [3].
Regarding `Cc1ncsc1-c1ccc(CNC(=O)[C@@H]2C[C@@H](O)CN2C(=O)[C@@H](NC(=O)[C@H]2CCC3(CC2)C[C@H](N2CCC(c4cnc(N5C6CCC5CN(c5cc(-c7ccccc7O)nnc5N)C6)nc4)CC2)C3)C(C)(C)C)cc1` (stereo partly drawn) [I-43, (2S,4R)-1-((2S)-2-(2-(4-(2-(3-(3-amino-6-(2-hydroxyphenyl)pyridazin-4-yl)-3,8-diazabicyclo[3.2.1]octan-8-yl)pyrimidin-5-yl)piperidin-1-yl)spiro[3.5]nonane-7-carboxamido)-3,3-dimethylbutanoyl)-4-hydroxy-N-(4-(4-methylthiazol-5-yl)benzyl)-pyrrolidine-2-carboxamide], the DC50 was over 1000 nM in experiment [1], 100 to 500 nM in experiment [2] and under 100 nM in experiment [3].
With `Cc1ncsc1-c1ccc(CNC(=O)[C@@H]2C[C@@H](O)CN2C(=O)C(c2cc(OCCN3CCC(c4cnc(N5C6CCC5CN(c5cc(-c7ccccc7O)nnc5N)C6)nc4)CC3)no2)C(C)C)cc1` (stereo partly drawn) [I-50, (2S,4R)-1-(2-(3-(2-(4-(2-(3-(3-amino-6-(2-hydroxyphenyl)pyridazin-4-yl)-3,8-diazabicyclo[3.2.1]octan-8-yl)pyrimidin-5-yl)piperidin-1-yl)ethoxy)isoxazol-5-yl)-3-methylbutanoyl)-4-hydroxy-N-(4-(4-methylthiazol-5-yl)benzyl)pyrrolidine-2-carboxamide], the Dmax in experiment [1], in experiment [2] and in experiment [3] was over 90% in each case. Also, the DC50 in experiment [1], in experiment [2] and in experiment [3] was under 100 nM each time.
Take `Cc1ncsc1-c1ccc(CNC(=O)[C@@H]2C[C@@H](O)CN2C(=O)[C@H](c2cc(OCCCN3CCC(c4cnc(N5C6CCC5CN(c5cc(-c7ccccc7O)nnc5N)C6)nc4)CC3)no2)C(C)C)cc1` [I-52, (2S,4R)-1-((2S)-2-(3-(3-(4-(2-(3-(3-amino-6-(2-hydroxyphenyl)pyridazin-4-yl)-3,8-diazabicyclo[3.2.1]octan-8-yl)pyrimidin-5-yl)piperidin-1-yl)propoxy)isoxazol-5-yl)-3-methylbutanoyl)-4-hydroxy-N-(4-(4-methylthiazol-5-yl)benzyl)pyrrolidine-2-carboxamide]: the Dmax in experiment [1], in experiment [2] and in experiment [3] was over 90% throughout. Moreover, the 50% degradation concentration (DC50) in experiment [1], in experiment [2] and in experiment [3] was under 100 nM in each case.
Take `Cc1ncsc1-c1ccc(CNC(=O)[C@@H]2C[C@@H](O)CN2C(=O)[C@@H](c2cc(OCCCCN3CCC(c4cnc(N5C6CCC5CN(c5cc(-c7ccccc7O)nnc5N)C6)nc4)CC3)no2)C(C)C)cc1` [I-55, (2S,4R)-1-((2R)-2-(3-(4-(4-(2-(3-(3-amino-6-(2-hydroxyphenyl)pyridazin-4-yl)-3,8-diazabicyclo[3.2.1]octan-8-yl)pyrimidin-5-yl)piperidin-1-yl)butoxy)isoxazol-5-yl)-3-methylbutanoyl)-4-hydroxy-N-(4-(4-methylthiazol-5-yl)benzyl)pyrrolidine-2-carboxamide]: the Dmax in experiment [1], in experiment [2] and in experiment [3] was over 90% in each case. Further, the DC50 in experiment [1], in experiment [2] and in experiment [3] was under 100 nM throughout.
